Experimental data reported in US12509441B2, “Compounds used as kinase inhibitors and application thereof” (TYK MEDICINES (ZHENGZHOU), INC., priority 2020, dated 2025).
pIC50: −log10 of the molar value. Like-named read-outs stand apart in the source and are kept apart here.

Legend:
[1] = molecular target: EGFR exon 20 insertion mutant kinase A763_Y764insFHEA (Homo sapiens, UniProt P00533, INS763FHEA); test: Kinase activity assay (33P-ATP filter-binding), EGFR exon 20 insertion mutant kinase A763_Y764insFHEA; assay type: biochemical; settings: ATP Km concentration; 10 concentrations
[2] = molecular target: EGFR exon 20 insertion mutant kinase D770-N771insNPG (Homo sapiens, UniProt P00533, INS770NPG); test: Kinase activity assay (33P-ATP filter-binding), EGFR exon 20 insertion mutant kinase D770-N771insNPG; assay type: biochemical; settings: ATP Km concentration; 10 concentrations
[3] = molecular target: T1, Ba/F3-FL-EGFR-V769-D770 ins ASV (Homo sapiens, UniProt P00533, DUP767-769, cells depend on it); test: Cell proliferation inhibitory activity test (CellTiter-Glo), EGFR exon 20 insertion mutation; assay type: cell-based; settings: 72 h, read-out: Ba/F3-FL-EGFR IC50 (nM) V769-D770ins ASV
T1 construct: Ba/F3-FL-EGFR IC50 (nM) V769-D770ins ASV; other: 72 h; class symbols; Ba/F3-FL-EGFR IC50 (nM) V769-D770ins ASV
Experimental: (§1) Cell Proliferation Inhibitory Activity Test Experiment of EGFR Exon 20 Insertion Mutation:
(§2) Cells such as Ba/F3-FL-EGFR-V769-D770 ins ASV, Ba/F3-FL-EGFR-D77-N771 ins SVD, Ba/F3-FL-EGFR-H773-V774 ins NPH, Ba/F3-FL-EGFR-A763-Y764 ins FQEA, constructed by Hefei Precedo Pharmaceuticals Co., Ltd.
(§3) 1000× compound mother liquor was prepared using DMSO, diluted to 20× final concentration using a culture medium, set aside.
(§4) Cells obtained after centrifugation were suspended with a certain amount of the culture medium and counted. The cell suspension solution was adjusted to a specified density using the culture medium, the diluted cell suspension solution was taken into a 96-well plate; 5 μl of 20× compound solution was added to each well of the 96-well plate, the content of DMSO in the final system was 0.1%; the 96-well plate was incubated for 72 h in a 5% CO2 cell incubator at 37° C.
(§5) The 96-well plate was brought to room temperature before detection, 50 μl of CellTiter-Glo® reagent was added to each well, the plate was read after being shaken for 2 minutes on a shaker and placed for 10 minutes at room temperature.
(§6) Inhibition rate (Inh %) relative to control wells processed by a solvent (DMSO) was calculated using the following equation: Inhibition rate (Inh %)=100−(RLU compound−RLU blank)/(RLU control−RLU blank)*100%

[4] = molecular target: Ba/F3-FL-EGFR-D77-N771 ins SVD (Homo sapiens, UniProt P00533, DUP768-770, cells depend on it); test: as above; assay type: cell-based; settings: 72 h, read-out: Ba/F3-FL-EGFR IC50 (nM) D77-N771ins SVD
Experimental: as §1, §2, §3, §4, §5, §6

[5] = molecular target: Ba/F3-FL-EGFR-H773-V774 ins NPH (Homo sapiens, UniProt P00533, DUP771-773, cells depend on it); test: as above; assay type: cell-based; settings: 72 h, read-out: Ba/F3-FL-EGFR IC50 (nM) H773-V774ins NPH
Experimental: as §1, §2, §3, §4, §5, §6

[6] = molecular target: Ba/F3-FL-EGFR-A763-Y764 ins FQEA (Homo sapiens, UniProt P00533, INS763FQEA, cells depend on it); test: as above; assay type: cell-based; settings: 72 h, read-out: Ba/F3-FL-EGFR IC50 (nM) A763-Y764ins FQEA
Experimental: as §1, §2, §3, §4, §5, §6

[7] = test system: H-1975 (EGFRL858R/T790M) cells; test: Cell proliferation inhibitory activity test (WST-8) of related EGFR mutations; assay type: cell-based; settings: for IC50: Homo sapiens, NCI-H1975, 72 h, cell viability, read-out: IC 50 (nM) H-1975 (EGFRL858/T790M)
Experimental: (§7) Cell Proliferation Inhibitory Activity Test Experiments of Related EGFR Mutations: 1.
(§8) Cell culture medium: RPMI containing 10% fetal bovine serum, 5 mM HEPES, and 2 mM glutamine.
(§9) Incubated overnight in a 5% carbon dioxide incubator at 37° C.
(§10) The compound was diluted to the required concentration in the culture medium at five times the final concentration. 20 microliters of the compound diluent was transferred to a culture plate containing 80 microliters of the cells incubated overnight, and continued to be incubated for 72 hours.
(§11) After 72 hours, 10 microliters of 6 mg/ml WST8 solution dissolved in a phosphate buffer solution was added, and incubated for 3 hours in 5% carbon dioxide at 37° C. A light absorption value at 450 nm was read and subtracted by an absorption value at 650 nm.
(§12) The obtained light absorption value was used to calculate cell viability according to the following equation: Cell viability %=(OD determination value/OD drug-free cell)×100

PC9 (EGFRdel19) cells = test: as above; assay type: cell-based; settings: for IC50: 72 h, cell viability, read-out: IC 50 (nM) PC-9 (EGFRdel19)
Experimental: as §7, §8, §9, §10, §11, §12

[8] = molecular target: Ba/F3 (EGFRdel19/L858R/C797S) (Homo sapiens, UniProt P00533, C797S/L858R, cells depend on it, form not given); test: as above; assay type: cell-based; settings: 72 h, cell viability; read-out: IC 50 (nM) Ba/F3 (EGFRdel19/L858/797s)
[9] = molecular target: T2, Ba/F3-FL-EGFR-V769-D770 ins ASV (Homo sapiens, UniProt P00533, cells depend on it, form not given); test: Cell proliferation inhibitory activity test (CellTiter-Glo), EGFR exon 20 insertion mutation; assay type: cell-based; settings: Ba/F3-FL-EGFR exon 20 insertion lines, see Table 6
T2 construct: rows headed: activity relative to the activity of TAK-788; Ba/F3-FL-EGFR

Structure (SMILES) | pIC50 [1] | pIC50 [2] | GI50 [3] | GI50 [4] | GI50 [5] | GI50 [6] | IC50 [7] | IC50 (PC9 (EGFRdel19) cells) | GI50 [8] | activity relative to the activity of TAK-788 [9] | GI50 ([3]; class symbols) | GI50 ([4]; class symbols) | GI50 ([5]; class symbols) | GI50 ([6]; class symbols) | cytostatic activity compared with osimertinib and TAK788 ([7]; H-1975 (EGFRL858/T790M)) | cytostatic activity compared with osimertinib and TAK788 (PC9 (EGFRdel19) cells; C-9 (EGFRdel19))
C=CC(=O)Nc1cc(Nc2ncc(C(=O)OC(C)C)c(-c3cn(C)c4ccccc34)n2)c(OC)cc1N(C)CCN(C)C [TAK788, reference compound] | 8.38 | 9.14 | 4 nM | 3.9 nM | 3.6 nM | 3.3 nM | 101 nM | 24.1 nM | 2630 nM |  |  |  |  |  |  | 
C=CC(=O)Nc1cc(Nc2ncc(-c3nnc(C)o3)c(-c3cn(C)c4ccccc34)n2)c(OC)cc1N(C)C1[C@H]2CN(C)C[C@@H]12 (some centres unmarked) [Example 18] |  |  | 1.9 nM | 2.8 nM | 2.8 nM | 1.8 nM | 91.2 nM | 6.61 nM | 3980 nM | around 2 times | < 5 nM | < 5 nM | < 5 nM | < 5 nM | not much different from osimertinib activity | not much different from osimertinib activity
